Reference: patent US5103007A, “Lipids” (Takeda Chemical Industries, Ltd., priority 1988, dated 1992)
Values after ≈ are worked out from the molar mass of the structure shown.

How the values were obtained:
[1] = Acute toxicity in CDF-1 female mice; assay type: in vivo
Experimental: Acute toxicity of Compounds of Examples
CDF-1 female mice (5-week old: a group of consisting of 5 mice) were given once intraperitoneally 0.2 ml of a physiological saline solution of a compound of Example.

[2] = test system: human nasopharynx cancer (KB cells); experiment: Inhibition of multiplication of human nasopharynx cancer (KB cells), MTT assay; assay type: cell-based; conditions: 72 hours
Experimental: (§1) The effect (IC50) of the compounds obtained by Examples in inhibiting multiplication of human nasopharynx cancer (KB cells) and human colon adenocarcinoma (colon 205 cells) Each well of a 96-well microtiter plate was inoculated with 0.1 ml of human nasopharynx cancer (KB cells) (1×10^4 /ml) or human colon adenocarcinoma (colon 205 cells) (2×10^4 /ml), which was then subjected to cultivation by allowing to stand at 37° C. for 24 hours in 5% CO2. To the culture was added a 10% MEM solution (manufactured by Nissui Seiyaku or RPMI-1640), and cultivation was continued at 37° C. for 72 hours in 5% CO2. Then, the culture solution was removed with a micro-pipette. […] Incubation was conducted at 37° C for 4 hours, to which was then added 0.1 ml of a 10% SDS (Wako Pure Chemical Industries, Ltd.), and the incubation was continued at 37° C. for 24 hours.

breast cancer cells MM46 = experiment: Action against breast cancer cells MM46 in C3H mice; assay type: in vivo, murine (C3H mice); conditions: for Life-span prolongation ratio (T/C %): 0.20 mg/mouse once a day for 4 consecutive days, only related to mice which died; for No. of survivors/No. of mice tested: 0.20 mg/mouse once a day for 4 days, on the 60th day
Experimental: Action of the compounds obtained in Examples against breast cancer cells MM46
C3H mice (a group consisting of 5 mice) were inoculated intraperitoneally with 1×10^4 MM46 cells per mouse, and given 0.20 mg/mouse of compounds of Examples dissolved in physiological saline once a day for 4 consecutive days starting from the second day after the inoculation. Shown in Table 3 are the life-span prolongation ratio against the control group without treatment and the number of surviving mice on the 60th day after starting the test.

[3] = test system: human colon adenocarcinoma (colon 205 cells); experiment: Inhibition of multiplication of human colon adenocarcinoma (colon 205 cells), MTT assay; assay type: cell-based; conditions: 72 hours
Experimental: as §1

[4] = test system: murine colon cancer (colon 26); experiment: Action against murine colon cancer (colon 26) in Balb/C mice; assay type: in vivo; conditions: 0.3 mg/mouse i.p., eight times; tumor weight after 14 days, against untreated control
Experimental: Action of the compound in Example against murine colon cancer (colon 26)
Balb/C mice (a group consisting of five mice) were inoculated subcutaneously at dorsolateral area with 2×10^5 murine colon cancer (colon 26l) cells, and then given intraperitoneally 0.3 mg/mouse of the compound dissolved in physiological saline, eight times, i.e. 1 day, 2 days, 5 days, 6 days, 8 days, 9 days, 12 days and 13 days after the inoculation. After 14 days, the tumor tissue was extirpated and the tumor weight was weighed. Shown in Table 2 is tumor growth inhibition ratio against the untreated control.

Sarcoma 180 cells = experiment: Antitumor effect against Sarcoma 180 cells in ICR mice; assay type: in vivo, murine (ICR mice); conditions: for Life-span prolongation ratio (T/C %): 0.33 mg/mouse i.p. 1 hour, 1 day and 2 days after inoculation, only related to mice which died; for Number of survivors/number of mice tested: 0.33 mg/mouse i.p. three times, on the 60th day
Experimental: Antitumor effect of compounds of Examples against Sarcoma 180 cells
ICR mice (a group consisting of 5 mice) were inoculated intraperitoneally with 1×10^5 Sarcoma 180 cells per mouse. Then, 0.33 mg/mouse of a compound dissolved in physiological saline was intraperitoneally administered three times, i.e. 1 hour, 1 day and 2 days after the inoculation. Shown in Table 4 are the life-span prolongation ratio against the control group without treatment and the number of surviving mice on the 60th day after the initiation of the test.

[5] = 50 mg/kg once i.p., after 7 days

Compound	No. of dead mice/No. of mice tested [1, 5]	IC50 [2]	Life-span prolongation ratio (T/C %) (breast cancer cells MM46)	No. of survivors/No. of mice tested (breast cancer cells MM46)	IC50 [3]	No. of dead mice/No. of mice tested ([1]; mouse, in vivo)	Growth inhibition ratio (1-T/C %) [4]	Life-span prolongation ratio (T/C %) (Sarcoma 180 cells)	Number of survivors/number of mice tested (Sarcoma 180 cells)
CCCCCCCCCCCCCCCCCCOCC(CSCCCOCCCn1ccnc1)Oc1ncccn1 (stereo not drawn) [Ex. 12, N-[3-[3-[3-octadecyloxy-2-(pyrimidin-2-yloxy)propylthio]propoxy]propyl]imidazole]	0/5	–	–	–	–	–	–	–	–
CCCCCCCCCCCCCCCCCCOCC(CS(=O)(=O)CCOCC[N+](C)(C)C)Oc1ncccn1.[Cl-] (stereo not drawn) [Ex. 21, N-[2-[2-[3-octadecyloxy-2-(pyrimidin-2-yloxy)propylsulfonyl]ethoxy]ethyl]-N,N,N-trimethylammonium chloride]	–	0.32 µg/mL	144%	2/5	–	–	–	–	–
CCCCCCCCCCCCCCCCCCOCC(CSCCOCC[n+]1ccn(CCCCCC(=O)[O-])c1)Oc1ncccn1 (stereo not drawn) [Ex. 9, 6-[3-[2-[2-[3-octadecyloxy-2-(pyrimidin-2-yloxy)propylthio]ethoxy]ethyl]imidazolio-1-yl]hexanoate]	–	0.32 µg/mL (≈ 0.463 µM)	–	–	0.63 µg/mL (≈ 0.912 µM)	0/5	–	–	–
CCCCCCCCCCCCCCCCCCOCC(C[S+]([O-])CCOCC[n+]1ccccc1)Oc1ncccn1.[Cl-] (stereo not drawn) [Ex. 2, N-[2-[2-[3-octadecyloxy-2-(pyrimidin-2-yloxy)propylsulfinyl]ethoxy]ethyl]pyridinium chloride]	–	0.32 µg/mL	150%	2/5	0.16 µg/mL	0/5	–	–	–
CCCCCCCCCCCCCCCCCCOCC(C[S+]([O-])CCOCC[n+]1ccsc1)Oc1ncccn1 (stereo not drawn) [Ex. 1, 2-[2-[3-octadecyloxy-2-(pyrimidin-2-yloxy)propylsulfinyl]ethoxy]ethylthiazolium chloride]	–	1.25 µg/mL	147%	4/5	1.25 µg/mL	0/5	48%	235%	2/5
CCCCCCCCCCCCCCCCCCOCC(C[S+]([O-])CCOCC[n+]1cccc(CCCO)c1)Oc1ncccn1.[Cl-] (stereo not drawn) [Ex. 3, 3-(3-hydroxypropyl)-1-[2-[2-[3-octadecyloxy-2-(pyrimidin-2-yloxy)propylsulfinyl]ethoxy]-ethyl]pyridinium chloride]	–	0.16 µg/mL	–	–	0.63 µg/mL	–	–	223%	2/5
CCCCCCCCCCCCCCCCCCOCC(C[S+]([O-])CCOCC[n+]1csc(CCO)c1C)Oc1ncccn1.[Cl-] (stereo not drawn) [Ex. 6, 5-(2-hydroxyethyl)-4-methyl-3-[2-[2-[3-octadecyloxy-2-(pyrimidin-2-yloxy)propylsulfinyl]ethoxy]-ethyl]thiazolium chloride]	–	0.32 µg/mL	–	–	0.63 µg/mL	–	–	213%	1/5
CCCCCCCCCCCCCCCCCCOCC(C[S+]([O-])CCOCC[N+](C)(C)C)Oc1ncccn1.[Cl-] (stereo not drawn) [Ex. 24, N-[2-[2-[3-octadecyloxy-2-(pyrimidin-2-yloxy)propylsulfinyl]ethoxy]ethyl]-N,N,N-trimethylammonium chloride]	–	< 0.16 µg/mL	–	–	0.63 µg/mL	0/5	–	195%	1/5
CCCCCCCCCCCCCCCCCCOCC(CSCCOCC[n+]1ccn(CCCC(=O)[O-])c1)Oc1ncccn1 (stereo not drawn) [Ex. 11, 4-[3-[2-[2-[3-octadecyloxy-2-(pyrimidin-2-yloxy)propylthio]ethoxy]ethyl]imidazolio-1-yl]butyrate]	0/5	–	–	–	–	–	–	–	–
CCCCCCCCCCCCCCCCCCOCC(CS(=O)(=O)CCOCC[n+]1ccsc1)Oc1ncccn1 (stereo not drawn) [Ex. 19, 2-[2-[3-octadecyloxy-2-(pyrimidin-2-yl-oxy)propylsulfonyl]ethoxy]ethylthiazolium chloride]	–	–	154%	2/5	–	–	–	–	–
